According to patent US10738044B2, “Therapeutic compound and use in therapy” (PROXIMAGEN, LLC, priority 2015, dated 2020):

How the values were obtained:
[1] = test system: female C57BL/6 mice, CCl4-induced liver fibrosis; assay: Carbon tetrachloride induced liver fibrosis model; format: in vivo, mouse; settings: 100 mg/kg bid orally for 28 days; FIG. 8
Method: Example 1 was assessed in a carbon tetrachloride (CCl4)-induced Liver Fibrosis Model. 7 week old female C57BL/6 mice were divided into four groups (n=5/group for one Control group to act as non-disease comparator and n=10/group for three CCl4-treated groups based on their body weight the day before the start of the treatment. Thirty mice were intraperitoneally administered 5% CCl4 in mineral oil at a volume of 100 uL twice a week (days 0, 4, 11, 14, 18, 21 and 25). Five mice intraperitoneally administered mineral oil instead of the 5% CCl4, served as the non-diseased control group. Example 1 (100 mg/kg bid), Valsartan (20 mg/kg qd, positive control) and Vehicle were administered orally (dose volume=10 mL/kg) for 28 days (days −1 to 27). […] For quantitative analysis of fibrosis area, bright field images of Sirius red-stained section was blindly captured using a digital camera at 100-fold magnification, and the Sirius red-stained positive areas in 5 fields/4 um section/mouse were measured using ImageJ software (National Institute of Health, USA) and in accordance with the following expression: (collagen area/total area-vascular lumen area)×100. […] Results were expressed as mean±SD. Comparison of the Valsartan group and Vehicle group in fibrosis area was assessed with student's t-test to confirm whether Valsartan worked as a positive control.

[2] = test system: C57BL6 mice, laser-induced choroidal burns; assay: Mouse choroidal neovascularisation model; format: in vivo; settings: topical 5 uL instillations tid days 0 to 12; day 12; FIG. 10
Method: Example 1 was assessed in a mouse choroidal neovascularisation model. Pigmented mice (C57BL6 strain, n=15 per group) each were induced with 3 choroidal burns in the right eyes using a 532 nm photocoagulator. Example 1 and vehicle were dosed topically using 5 uL instillations tid from days 0 to 12. On day 12, lesion size was determined by isolectine B4 immunostaining on flatmount choroids from the treated eyes and confocal microscopy for determining the size of the lesion.

[3] = test system: DSS-treated mice, established colitis; assay: Chronic DSS-induced colitis mouse model; format: in vivo
Method: Example 1 was assessed in the treatment of established disease in the chronic Dextran Sulphate (DSS)-induced colitis model. DSS was administered in the drinking water as a 3% solution for five days. DSS-treated mice were orally administered vehicle, 6-Thioguanine (0.5 mg/kg) or Example 1 (10 mg/kg, 30 mg/kg or 100 mg/kg) b.i.d. from Days 6 to 19. A no treatment control group of 5 mice was also used. Body weights were measured daily for 19 days and animals were assessed visually for the presence of diarrhea and/or bloody stool. All animals underwent video endoscopy on Days 5 (baseline), 12 and 19 to assess the extent of colitis and whether any beneficial treatment effects could be observed. All animals were euthanized on Day 19 to obtain colon tissues for pathology examination.

[4] = test system: C57BL/10ScSn-Dmdx/J male mice; assay: Murine model of Duchenne's muscular dystrophy (mdx mice); format: in vivo, mouse; settings: 100 mg/kg po bid for 4 weeks; FIG. 11
Method: C57BL/10ScSn-Dmdx/J male mice were dosed from 27 days for 4 weeks with either vehicle (n=5), prednisolone (1 mg/kg ip qd, n=8) or Example 1 (100 mg/kg po bid, n=8). At 8 weeks of age, blood was collected by retro-orbital bleeding, and mice were humanely euthanized by CO2 asphyxiation. One triceps surae was collected fresh and processed for immune cell sorting, one tibialis anterior was preserved in RNALater for RNA extraction, one whole hind limb and the diaphragm were fixed in 2% paraformaldehyde overnight at 4° C. for paraffin embedding and histology stains. Serum was prepared immediately after collection and frozen at −20° C. At the end of the study, all serum samples were dosed for Creatine Kinase on a Beckman Coulter AU Clinical Chemistry analyzer following manufacturer instructions (a modification of the International Federation of Clinical Chemistry method).
For immune cell sorting, muscle samples were enzymatically and mechanically dissociated following manufacturer instructions (Skeletal Muscle Dissociation KitCatalog no. 130-098-305, Miltenyi Biotec). Cells were stained with the following antibodies:
Stained cells were analyzed on a BD LSR II cytometer and counts of different populations were expressed in percentage of the number of live cells counted. Total RNAs were extracted with a modification of the Trizol method, reverse transcribed, and mRNAs of TGFα, and the following inflammation markers were quantified by the SYBR green method with GAPDH as a normalizer: […]

[5] = test system: male DBA/1J mice, collagen-induced arthritis; assay: Established mouse collagen-induced arthritis model; format: in vivo
Method: Example 1 was assessed in an established mouse collagen-induced arthritis model. Disease was induced in male DBA/1J mice by means of a subcutaneous injection of a collagen (bovine)/CFA emulsion at the base of the tail. Each paw was scored daily and the sum of all four scores was recorded as the Arthritic Index (AI). The maximum possible AI was 16 (0=no visible effects of arthritis, 1=edema and/or erythema of one digit, 2=edema and/or erythema of 2 joints, 3=edema and/or erythema of more than 2 joints, 4=severe arthritis of the entire paw and digits including limb deformation and ankylosis of the joint). As animals developed disease, they were sorted into treatment groups with AI in the range of 2-6 and an average group AI of 3.6 prior to initiation of the dosing regimen. Example 1 (10, 50 and 100 mg/kg) was administered orally twice daily from day 30 post-inoculation.
Histological evaluation of the rear right hind limbs was also carried out. The joints were scored for severity of arthritis (inflammation, pannus, cartilage damage and bone damage) by a board certified pathologist, who was blind to the assigned treatment.

[6] = test system: female SJL mice, experimental allergic encephalomyelitis; assay: Mouse PLP139-151 relapsing-remitting EAE model; format: in vivo; settings: 3, 10, 30 or 100 mg/kg orally twice daily, therapeutic; FIG. 7
Method: Example 1 was assessed in a PLP139-151 remitting and relapsing model of experimental allergic encephalomyelitis (EAE) in female SJL mice as an indicator of a potential treatment for multiple sclerosis in humans.
Adjuvant was prepared by homogenizing 100 mg Mycobacterium tuberculosis H37 RA in 50 mL Incomplete Freund's Adjuvant to prepare a 2 mg/mL suspension which was stored at 4-8° C. 50 ug pertussis toxin from Bordetella pertussis was reconstituted in 50 mL sterile PBS to prepare a 1 ug/mL solution which was kept in an ice bath. 10.35 mg PLP139-151 was dissolved in 10.35 mL sterile PBS to prepare a 1 mg/mL solution. 10 mL of PLP139-151 was emulsified with 10 mL adjuvant in ten batches in an ice bath to prepare a 0.5 mg/mL PLP139-151/1 mg/mL M. tuberculosis H37 RA emulsion which was kept in an ice bath. […] On day 0, 70 mice were injected subcutaneously in both flanks with 0.1 mL of the PLP139-151/CFA emulsion. Two hours later the mice were injected by intraperitoneal route with 0.2 mL pertussis toxin (200 ng/mouse). The mice were returned to routine maintenance with no adverse effects. On day 2, the mice were injected IP with 0.2 mL of pertussis toxin (200 ng/mouse). From day 7 the mice were weighed and scored for signs of disease as follows: 0=no obvious signs of motor dysfunction compared to non-immunized control; 1=limp or floppy tail; 2=limp tail and weakness in hind legs; 3=limp tail and complete paralysis of legs or limp tail with paralysis of one front and one hind leg; 4=limp tail, complete hind leg and partial front leg paralysis; 5=complete hind and complete front leg paralysis. On days 10-12, the mice were sorted into treatment groups based upon average score and twice daily oral administration of Example 1 (3, 10, 30 or 100 mg/kg), dexamethasone or vehicle (n=10 per group) was initiated. The disease score was monitored for 20 days.

[7] = test system: serum TNFα in female Swiss Webster mice; assay: Murine model of LPS-induced cytokine release; format: in vivo, mouse; settings: oral administration one hour prior to LPS challenge; serum one hour after LPS; FIG. 9
Method: Example 1 was assessed in an LPS-induced cytokine release assay. One hour after administration of Example 1, female Swiss Webster mice (n=5 per group) were injected intraperitoneally with 2 mL/kg LPS (1.5 mg/mL). One hour after LPS injection the mice were anesthetized and exsanguinated into pre-chilled serum separator microtainer tubes. The blood was processed to serum which was stored at −80° C. The frozen serum aliquots were thawed to room temperature, diluted 1:5 with sterile saline and assayed by ELISA for TNFα.

[8] = 100 mg/kg orally twice daily, rear right hind limbs, FIG. 2

CC(C)[C@H]1c2[nH]cnc2CCN1C(=O)OCc1ccc(OCCCN(C)C)cc1 [Example 1, {4-[3-(Dimethylamino)propoxy]phenyl}methyl (4S)-4-(propan-2-yl)-3H,4H,5H,6H,7H-imidazo[4,5-c]pyridine-5-carboxylate]
deposition of collagen in the liver (Sirius red staining) [1]: significantly reduced
lesion size versus vehicle [2]: significant reduction
magnitude of the effect relative to positive control 6-Thioguanine (0.5 mg/kg) ([3]; 100 mg/kg orally b.i.d.): comparable to the effect seen with the positive control
overall body weight ([3]; 100 mg/kg orally b.i.d., FIG. 3): statistically significant effects
endoscopy scores on day 12 ([3]; 100 mg/kg orally b.i.d., FIG. 4): statistically significant effects
colon weight ([3]; 100 mg/kg orally b.i.d., FIG. 5): statistically significant effects
diarrhea ([3]; 100 mg/kg orally b.i.d., FIG. 6): statistically significant effects
overall effect in the DSS colitis model ([3]; 10, 30 or 100 mg/kg orally b.i.d., Days 6 to 19): dose-dependent improvement
B cells [4]: significant reduction
T cells [4]: significant reduction
TGFβ [4]: significant reduction
cytokines [4]: significant reduction
macrophages [4]: significant reduction
pro-inflammatory monocytes [4]: significant reduction
reduction in disease severity (Arthritic Index) ([5]; 100 mg/kg orally twice daily, after two weeks of therapy, FIG. 1): 46%
inhibition of bone resorption (joint histology) [5, 8]: 84%
inhibition of cartilage damage (joint histology) [5, 8]: 60%
inhibition of inflammation (joint histology) [5, 8]: 60%
inhibition of pannus formation (joint histology) [5, 8]: 84%
rate of disease development (Arthritic Index) ([5]; 10, 50 and 100 mg/kg orally twice daily from day 30 post-inoculation, FIG. 1): dose-dependent decrease in the rate of disease development
disease severity (EAE score) [6]: decrease in disease severity
time to disease relapse [6]: increased time to disease relapse
time to disease remission [6]: dose-dependent decrease in the time to disease remission
serum TNFα levels relative to vehicle control [7]: statistically significant dose-dependent decrease
